According to ChEMBL document CHEMBL1201862, “PubChem BioAssay data set” (2004):
The source made the active and inactive calls.

What was measured:
[1] = Trypanosoma cruzi growth suppression in host cells – NIH3T3 host cells, beta-gal luminescence, confirmation (AID 2044); type: functional, cell-based;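 further: intracellular parasites grown in NIH/3T3 mouse fibroblasts as host cells; luminescent beta-galactosidase reporter signal from transgenic T. cruzi replicating inside host cells; inhibitors lower the luminescence signal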
[2] = target: T1, Hexokinase HKDC1 (Homo sapiens, UniProt Q2TB90); assay: activation of HKDC1 glucose phosphorylation – biochemical, W721R variant, dose response (AID 504730); type: functional
T1 sequence (Q2TB90 whole entry): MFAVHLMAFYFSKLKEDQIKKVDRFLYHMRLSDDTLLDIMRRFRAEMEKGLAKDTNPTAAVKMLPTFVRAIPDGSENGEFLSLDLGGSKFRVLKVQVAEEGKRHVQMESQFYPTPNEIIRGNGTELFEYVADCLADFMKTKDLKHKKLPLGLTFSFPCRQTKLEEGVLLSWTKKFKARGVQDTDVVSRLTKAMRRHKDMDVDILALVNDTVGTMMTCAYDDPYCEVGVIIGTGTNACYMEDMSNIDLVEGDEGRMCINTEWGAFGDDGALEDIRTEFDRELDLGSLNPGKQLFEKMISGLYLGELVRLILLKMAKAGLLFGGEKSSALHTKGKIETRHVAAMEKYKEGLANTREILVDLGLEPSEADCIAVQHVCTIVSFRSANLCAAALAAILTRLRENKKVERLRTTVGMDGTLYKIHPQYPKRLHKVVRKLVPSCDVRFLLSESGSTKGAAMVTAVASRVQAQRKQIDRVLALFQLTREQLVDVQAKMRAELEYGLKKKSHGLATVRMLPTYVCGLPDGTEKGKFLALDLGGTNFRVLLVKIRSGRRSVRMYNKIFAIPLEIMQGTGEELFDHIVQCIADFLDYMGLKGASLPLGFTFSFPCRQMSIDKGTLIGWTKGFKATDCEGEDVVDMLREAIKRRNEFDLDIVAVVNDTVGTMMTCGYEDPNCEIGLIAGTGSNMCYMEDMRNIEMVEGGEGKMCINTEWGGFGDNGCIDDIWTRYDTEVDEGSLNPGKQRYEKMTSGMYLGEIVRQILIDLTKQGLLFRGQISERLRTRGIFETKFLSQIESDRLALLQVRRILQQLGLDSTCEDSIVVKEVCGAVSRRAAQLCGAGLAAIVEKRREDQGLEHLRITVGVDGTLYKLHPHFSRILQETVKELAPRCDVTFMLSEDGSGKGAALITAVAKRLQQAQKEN

[3] = target: T2, Heat shock factor protein 1 (Mus musculus, UniProt P38532); assay: enhancement of HSF1-driven luciferase signal – cell-based, NIH3T3, luminescence, dose retest, confirmation (AID 435004); type: functional;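 further: stress induced by proteasome inhibitor MG132 added 30 min after compound; luciferase reporter driven by HSF1 response element in NIH3T3 cells; actives raise luminescence as potentiators of the MG132 stress response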
T2 sequence (P38532 whole entry): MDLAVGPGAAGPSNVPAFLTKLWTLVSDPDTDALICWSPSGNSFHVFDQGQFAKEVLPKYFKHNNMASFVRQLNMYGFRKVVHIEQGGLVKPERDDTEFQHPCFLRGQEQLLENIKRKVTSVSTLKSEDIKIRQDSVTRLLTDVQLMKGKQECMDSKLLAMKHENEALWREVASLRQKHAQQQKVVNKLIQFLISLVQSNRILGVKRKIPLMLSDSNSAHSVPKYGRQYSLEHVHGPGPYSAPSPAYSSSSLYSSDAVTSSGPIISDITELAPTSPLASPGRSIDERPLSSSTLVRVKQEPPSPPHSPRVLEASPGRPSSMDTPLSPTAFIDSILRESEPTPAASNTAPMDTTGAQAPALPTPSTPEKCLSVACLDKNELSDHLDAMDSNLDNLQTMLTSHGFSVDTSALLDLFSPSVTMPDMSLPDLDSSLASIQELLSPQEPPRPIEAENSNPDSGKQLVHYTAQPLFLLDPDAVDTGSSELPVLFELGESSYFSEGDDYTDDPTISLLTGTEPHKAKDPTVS

[4] = target: Heat shock protein HSP 90-alpha (Homo sapiens, UniProt P07900); type: functional, organism-based
[5] = target: T3, Hexokinase-1 (Homo sapiens, UniProt P19367); assay: HK1 enzyme activation by HKDC1 hits – biochemical, selectivity assay for HKDC1 activator project, dose response (AID 504762); type: functional
T3 sequence (P19367 whole entry): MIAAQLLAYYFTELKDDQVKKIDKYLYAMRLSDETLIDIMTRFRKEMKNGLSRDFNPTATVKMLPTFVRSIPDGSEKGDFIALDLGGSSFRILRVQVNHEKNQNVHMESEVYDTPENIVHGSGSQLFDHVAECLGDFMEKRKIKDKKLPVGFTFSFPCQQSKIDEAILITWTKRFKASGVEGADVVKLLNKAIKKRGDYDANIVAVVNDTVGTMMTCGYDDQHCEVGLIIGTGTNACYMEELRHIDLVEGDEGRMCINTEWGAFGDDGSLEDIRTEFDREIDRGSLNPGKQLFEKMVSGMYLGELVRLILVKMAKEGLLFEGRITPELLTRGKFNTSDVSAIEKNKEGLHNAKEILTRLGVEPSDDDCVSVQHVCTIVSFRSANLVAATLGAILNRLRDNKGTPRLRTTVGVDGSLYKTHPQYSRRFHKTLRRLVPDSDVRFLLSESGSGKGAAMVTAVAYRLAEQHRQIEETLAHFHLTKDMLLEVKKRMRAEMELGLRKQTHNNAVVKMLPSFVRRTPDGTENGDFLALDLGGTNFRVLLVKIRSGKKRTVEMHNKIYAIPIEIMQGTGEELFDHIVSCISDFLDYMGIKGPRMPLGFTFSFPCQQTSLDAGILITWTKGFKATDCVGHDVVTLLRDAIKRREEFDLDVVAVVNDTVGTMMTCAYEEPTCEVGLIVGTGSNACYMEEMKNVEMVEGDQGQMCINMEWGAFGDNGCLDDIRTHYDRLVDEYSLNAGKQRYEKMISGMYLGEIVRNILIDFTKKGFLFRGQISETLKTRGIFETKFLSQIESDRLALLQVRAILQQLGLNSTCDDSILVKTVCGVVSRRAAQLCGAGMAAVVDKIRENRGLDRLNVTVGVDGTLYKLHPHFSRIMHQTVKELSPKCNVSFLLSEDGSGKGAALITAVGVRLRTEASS

[6] = target: Glucose-6-phosphate 1-dehydrogenase (Homo sapiens, UniProt P11413); assay: inhibition of Homo sapiens G6PD, dose series – biochemical, fluorescence, selectivity assay for P. falciparum G6PD inhibitor project, dose response (AID 504792); type: functional
Glucose-6-phosphate 1-dehydrogenase, sequence (P11413 whole entry): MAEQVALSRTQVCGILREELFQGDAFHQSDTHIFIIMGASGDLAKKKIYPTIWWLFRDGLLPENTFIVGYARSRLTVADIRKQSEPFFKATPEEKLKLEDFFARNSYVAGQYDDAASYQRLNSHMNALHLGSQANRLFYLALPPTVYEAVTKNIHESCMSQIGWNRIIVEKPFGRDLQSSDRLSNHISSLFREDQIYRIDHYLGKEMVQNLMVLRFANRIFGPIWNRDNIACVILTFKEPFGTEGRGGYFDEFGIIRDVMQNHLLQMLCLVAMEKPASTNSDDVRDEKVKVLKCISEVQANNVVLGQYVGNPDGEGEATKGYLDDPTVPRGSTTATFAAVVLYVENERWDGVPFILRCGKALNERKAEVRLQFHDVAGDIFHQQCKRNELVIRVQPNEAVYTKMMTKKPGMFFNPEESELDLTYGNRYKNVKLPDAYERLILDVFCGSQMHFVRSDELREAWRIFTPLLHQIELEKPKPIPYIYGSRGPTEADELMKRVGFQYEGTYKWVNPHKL

[7] = THP-1 cell cytotoxicity, dose response, cytotoxicity control for non-replicating M. tuberculosis project (AID 489025); type: functional

Clc1ccc(/N=c2\ssnc2Cl)nc1
EC50 [1]: 1.45 µM (active)
EC50 [2]: 50.3 µM (inactive)
EC50 [3]: 16 µM (active)
AC50 [4]: 1.73 µM (active)
EC50 [5]: 65.4 µM (inactive)
IC50 [6]: > 80 µM (inactive)
CC50 [7]: 17.5 µM (active)
